# Experimental data: patent US20100113533A1, “Polymorph II of 4-[4-(Amino)-3- Fluorophenoxy]-N-Methylpyridine-2-Carboxamide” (BAYER SCHERING PHARMA AKTIENGESELLSCHAFT, priority 2006, published 2010)
# Assay: Solubility in water and in organic solvents
# Assay type: physicochemical
smiles,measurement,setting,value
"CNC(=O)c1cc(Oc2ccc(NC(=O)Nc3ccc(Cl)c(C(F)(F)F)c3)c(F)c2)ccn1 [polymorph II, 4-[4-({[4-chloro-3-(trifluoromethyl)phenyl]carbamoyl}amino)-3-fluorophenoxy]-N-methylpyridine-2-carboxamide]",solubility in organic solvents,organic solvents,high solubility
same,solubility in water,water,high solubility
